According to patent US12552800B2, “Compounds for diagnosis” (AC IMMUNE SA, priority 2020, dated 2026):
“Also recorded” adds a separate entry of the source.

Assays:
[1] = target: T1, a-syn aggregates (Lewy bodies and Lewy neurites) (Homo sapiens, UniProt P37840); assay: High resolution micro-autoradiography of Example-4 [^3H-4] on PD tissue; type: binding; conditions: 20 nM
T1 construct: performed on frozen human brain sections from different a-synucleinopathy cases; from tissue; host or cells: frozen human brain sections (PD, PDD, MSA, DLB, LBV; NDC as controls)
Protocol: (§1) The protocol was adapted from Marquie et al., 2015. Sections were incubated with tritiated example compound 4 (Example-4 [^3H-4]) or a reference Tau ligand ([^3H]-Tau-Ref at 20 nM for one hour at RT. Sections were then washed as follows: One time in ice-cold 50 mM Tris-HCl pH 7.4 buffer for one minute, two times in 70% ice-cold ethanol for one minute, one time in ice-cold 50 mM Tris-HCl pH 7.4 buffer for one minute and finally rinsed briefly in ice-cold distilled water. Sections were subsequently dried and then exposed to Ilford Nuclear Emulsion Type K5 (Agar Scientific, AGP9281) in a light-proof slide storage box. After five days, the sections were developed by immersing them successively in the following solutions: 1.) Ilford Phenisol Developer (1:5 dilution in H2O, Agar Scientific, AGP9106), 2.) Ilfostop solution (1:20 dilution in H2O, Agar Scientific, AGP9104), 3.) Ilford Hypam Fixer (1:5 dilution in H2O, Agar Scientific, AGP9183) and finally rinsed with H2O.
When indicated, immunostaining was also performed on the same section. For image acquisition, sections were mounted using ProLong Gold Antifade reagent (Invitrogen P36930) and imaged on a Panoramic150 Slide Scanner (3DHistech) with a 20× objective capturing separately brightfield and fluorescent images. […]

pathological a-synuclein = assay: Autoradiography of Example-4 [^3H-4] in brain sections from PD, MSA and NDC donors; type: binding, human; conditions: 10 nM
Protocol: Frozen human brain sections from one familial PD case (a-synuclein [SNCA] gene G51 D missense mutation), labelled as SNCA, one idiopathic PD case, one MSA case and two non-demented control (NDC) cases were first briefly fixed for 15 minutes at 4° C. with 4% paraformaldehyde (Sigma, 252549) and washed three times for five minutes with PBS (Dulbecco's phosphate buffered saline, Sigma) at RT. All slides were then equilibrated for 20 minutes in 50 mM Tris-HCl pH 7.4 buffer prior to use in the experiment. Each brain section was incubated with a fixed concentration (10 nM) of tritiated example compound 4 (Example-4 [^3H-4]) in Tris-HCl buffer for two hours at RT (Total binding, ‘Total’). […] The slides were washed and then exposed and scanned in a real-time autoradiography system (BeaQuant instrument, ai4R).

Tau aggregates = assay: Micro-autoradiography of Example-4 [^3H-4] on AD tissue; type: binding, human; conditions: AD brain tissue, compared to [^3H]-Tau-Ref
Protocol: as §1

[2] = target: T2, PD brain-derived a-syn aggregates (Homo sapiens, UniProt P37840); assay: Saturation binding of Example-4 [^3H-4] by micro-radiobinding; conditions: PD homogenates
T2 construct: from tissue; host or cells: human PD donor brain, sarkosyl-insoluble 100,000 x g pellet
Protocol: PD brain-derived a-syn aggregates were spotted onto microarray slides. The slides were incubated with Example-4 [^3H-4] at increasing concentrations in the range of 1.56 nM to 80 nM. After incubation, slides were scanned by a real-time autoradiography system (BeaQuant instrument, ai4R). Quantification of the signal was performed by using the Beamage image analysis software (ai4R).

[3] = target: T3, Abeta pathological aggregates (Homo sapiens, UniProt P05067); assay: Radiobinding competition assay against [^3H]-Abeta-Ref on AD brain homogenates (example compound 4); type: binding; conditions: displacement of [^3H]-Abeta-Ref at 10 nM, AD brain-derived homogenates
T3 construct: Abeta pathological aggregates present in the human AD brain homogenates; from tissue; host or cells: human AD donor brain, Triton/sucrose-insoluble 100,000 x g pellet
T3 sequence (P05067 672-713 limits assumed): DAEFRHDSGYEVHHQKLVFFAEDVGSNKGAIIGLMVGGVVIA
Protocol: The procedure was adapted from the protocol described in Bagchi et al., 2013. Frozen tissue blocks from AD donors were thawed on ice and homogenized in high salt buffer (50 mM Tris-HCl pH 7.5, 0.75M NaCl, 5 mM EDTA) supplemented with protease inhibitors (Complete; Roche 11697498001) at 4° C. using a glass Dounce homogenizer. The homogenate was centrifuged at 100,000×g (38,000 RPM) in an ultracentrifuge (Beckman, XL100K) for one hour at 4° C. using a pre-cooled 70.1 rotor (Beckman, 342184). Pellets were resuspended in high salt buffer supplemented with 1% Triton X-100 and homogenized at 4° C. using a glass Dounce homogenizer. The homogenates were centrifuged again at 100,000×g (38,000 RPM, 70.1 rotor) for one hour at 4° C. Pellets were resuspended in high salt buffer supplemented with 1% Triton X-100 and 1 M sucrose and homogenized at 4° C. using a glass Dounce homogenizer. The homogenates were centrifuged at 100,000×g (38,000 RPM, 70.1 rotor) for one hour at 4° C. […]
A fixed concentration of AD insoluble fraction was incubated with a tritiated reference Abeta ligand ([^3H]-Abeta-Ref) at 10 nM and increasing concentrations of non-radiolabelled example compound 1 in the range of 400 pM to 2 μM for two hours at RT. […] The filters were analyzed on a Microbeta2 scintillation counter (PerkinElmer). […]

[4] = target: T2, PD brain-derived a-syn aggregates; assay: Micro-radiobinding competition assay against Example-1 [^3H-1] (Table 8); type: binding
Outline: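 Human PD brain-derived α-syn aggregates on microarray slides were co-incubated with 6 nM or 20 nM tritiated radioligand and unlabelled compound at 1 μM and 100 nM, some over 0.05 nM–2 μM. Bound signal read by real-time autoradiography; values are % competition, at least two technical replicates, mean of independent experiments.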

SMILES | target engagement on Lewy bodies and Lewy neurites (silver grains) [1] | signal in non-diseased control cases (pathological a-synuclein) | specific binding in a-synucleinopathy tissues (pathological a-synuclein; MSA, familial PD, idiopathic PD) | target engagement on Tau aggregates (Tau aggregates) | target engagement on Tau aggregates (Tau aggregates; listed as Example-4 [^3H-1]) | Kd [2] [nM] | Ki [3] [nM] | Competition at 100 nM (%) ([4]; 100 nM non-radiolabelled example compound vs Example-1 [^3H-1] ligand, human PD brain-derived a-syn aggregates) | Competition at 1 μM (%) ([4]; 1 μM non-radiolabelled example compound vs Example-1 [^3H-1] ligand, human PD brain-derived a-syn aggregates) | Ki ([4]; mean of Ki values in independent experiments using PD brain-derived homogenates from three different donors) [nM]
[3H]C([3H])([3H])n1cc(N2Cc3nn(-c4ccc(N5CC[C@@H](F)C5)nc4)cc3C2=O)cn1 [Example-4 [^3H-4]] | Accumulation of silver grains on Lewy bodies and Lewy neurites; also recorded: strong target engagement | very weak signal | specific binding | did not display specific target engagement | No accumulation of silver grains | 21 |  |  |  | 
Cn1cc(N2Cc3nn(-c4ccc(N5CC[C@@H](F)C5)nc4)cc3C2=O)cn1 [Example 4] |  |  |  |  |  |  | 297 | 58 | 92 | 50
